Measurements as given in paper PMC11847541, “Liver fatty acid binding protein FABP1 transfers substrates to cytochrome P450 4A11 for catalysis” (The Journal of Biological Chemistry, 2025).

Tests used:
P450 4A11 [1] = target: T1, P450 4A11 (Homo sapiens, UniProt Q02928); test: Ketoconazole trap experiment for lipid koff from P450 4A11; format: binding; design: made in house; host or cells: E. coli
T1 sequence (Q02928 5-519): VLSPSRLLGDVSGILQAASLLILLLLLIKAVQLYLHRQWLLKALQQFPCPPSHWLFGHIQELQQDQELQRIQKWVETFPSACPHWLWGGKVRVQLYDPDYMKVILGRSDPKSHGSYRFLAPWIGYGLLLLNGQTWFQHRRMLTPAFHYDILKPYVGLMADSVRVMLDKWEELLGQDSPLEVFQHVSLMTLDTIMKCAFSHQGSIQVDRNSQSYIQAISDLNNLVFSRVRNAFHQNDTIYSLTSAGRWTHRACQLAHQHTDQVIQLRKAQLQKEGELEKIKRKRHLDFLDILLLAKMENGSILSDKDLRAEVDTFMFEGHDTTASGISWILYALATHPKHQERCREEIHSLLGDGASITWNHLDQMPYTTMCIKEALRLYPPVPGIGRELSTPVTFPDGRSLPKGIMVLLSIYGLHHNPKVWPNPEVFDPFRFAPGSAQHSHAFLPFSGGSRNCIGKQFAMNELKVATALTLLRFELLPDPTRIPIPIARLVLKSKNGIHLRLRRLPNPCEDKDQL
Experimental: To assess the rates of lipid egress from P450 4A11 (k-1, k-3), lipids were tested in conjunction with the general P450 inhibitor ketoconazole in a “trap experiment” as we have recently described to estimate koff rates for P450–sterol complexes ([27], [28]). P450–lipid complexes were rapidly mixed with ketoconazole, and the spectral shift from 390 nm (substrate bound, type I) to 418 nm (inhibitor bound, type II) P450 was monitored over time (Fig. 9A, progression from blue to red curve). This spectral shift arises from the direct interaction of the azole nitrogen lone pair with the heme iron (forming a hexacoordinated heme species). This experiment is performed with an excess of ketoconazole (100 μM) to facilitate rapid capture of unliganded P450 yielded at the moment of lipid dissociation, such that ketoconazole kon approximates the lipid koff.
(The concentration of lipid added during preincubation reflects the affinity of the complex determined in equilibrium binding titrations; Fig. 8). The first phase of each trace relates to the ketoconazole capture of the unliganded enzyme (the majority–but not all–P450 was substrate bound at equilibrium), and the second phase correlates to the capture of enzyme yielded by the egress of the bound lipid (i.e., estimate of koff). […] The rates extracted for the second phase (koff) were 0.070 ± 0.006 s^−1 (k-3) and 0.20 ± 0.01 s^−1 (k-1), respectively.
Determination of P450 4A11 koff rates with lipids was performed using a ketoconazole “trap” experiment by adapting previously published protocols ([27], [28]). Solutions of (A) ketoconazole (200 μM) and (B) P450 4A11 (4 μM) and either palmitate (20 μM) or 16-OH palmitate (8 μM) were prepared (2 ml each, all in 100 mM potassium phosphate buffer [pH 7.4]) and loaded into the drive syringes of an OLIS stopped-flow spectrophotometer with the same procedure described for the P450 4A11 kon determination (aforementioned). The experiment was initiated by mixing equal volumes of each solution together, and the rate of ketoconazole binding to P450 is given by ΔA418-A390 (displacement of lipid [decrease in A390] because of ketoconazole binding [increase in A418]) and is a maximum value for the rate at which the P450–lipid complex dissociated (koff) (Fig. S14).
Figure S14. Absorbance traces used to determine P450 4A11 palmitate koff rate. The basis of the ketoconazole trap experiment is the spectral transition from substrate-bound (“Type I” shift, A390 (blue trace)) to inhibitor-bound (“Type II” shift, A418 (red trace)) P450 (Fig. 9A). The formation of ketoconazole-bound P450 (inhibitor complex) from palmitate-bound P450 (substrate complex) is over the course of the experiment shown above. The rate of formation of inhibitor-bound P450 is subtracted from the rate of decay of substrate-bound P450, and the resulting plot (Fig. 9D) is fit to a biexponential equation to estimate the dissociation rate (koff) of palmitate from the P450 4A11.

P450 4A11 [2] = target: T1, P450 4A11; format: binding; design: made in house; host or cells: E. coli; conditions: for substrate transfer rate from FABP1 to P450 4A11: FABP1, DAUDA, palmitate 0.2 μM each, P450 4A11 2 μM
Experimental: Set up as a reverse experiment of the fluorescence displacement assay (Fig. 5), this experiment involved mixing equimolar concentrations (0.2 μM) of DAUDA, FABP1, and palmitate to form a solution ( FDS↔FD+S↔FS+D ) with low fluorescence (Fig. 5A). That solution was then rapidly mixed with an excess of P450 4A11 (2 μM), and the gain of fluorescence was monitored (i.e., as substrate was transferred from FABP1 to P450, either as FDS + P450 → FD + P450-S or as FS + P450 + D → P450-S + F + D → FD; Fig. 5A). As expected, we observed a weak but reproducible stimulation of fluorescence in this experiment (n = 6 shots), and the data were fit to single exponential equation yielding a substrate transfer rate (k6) of 4.2 ± 0.9 s^−1 (Fig. 11).
Figure 11 Rate of palmitate transfer (ktransfer) from FABP1 to P450 4A11. A stoichiometric mixture of FABP1, DAUDA, and palmitate (0.2 μM) was mixed with P450 4A11 (2 μM), and the gain of fluorescence (>420 nm) was monitored (i.e., as FDS + E → FD + ES, Fig. 5A). Six traces were averaged and fit to a single exponential equation, yielding a rate of 4.2 ± 0.9 s^−1. […] replicate experiments were averaged to generate the trace. DAUDA, 11-dansylaminoundecanoic acid; FABP1, fatty acid binding protein.
To estimate the rate of transfer of palmitate from FABP1 to P450 4A11, a mixture of palmitate, FABP1, and DAUDA (0.4 μM, each component) was mixed against a solution of P450 4A11 (4 μM). All components were diluted twofold to their final concentrations in the mixing process. The experiment was performed with stopped-flow parameters identical to the experiments of FABP1 with lipids (aforementioned), and data were processed in the same manner, with the exception that a smoothing factor of 0.4 was applied to the data (in Microsoft Excel) prior to curve fitting.

[3] = P450 4A11 2 μM preincubated with lipid, ketoconazole 100 μM

koff (P450 4A11 [1]; P450 4A11 2 μM preincubated with lipid, ketoconazole 100 μM, read-out: second phase rate = koff from P450 4A11)	Kd (P450 4A11 [1]; quotient of experimentally determined rates, read-out: Kd estimate for P450 4A11 as koff/kon)	substrate transfer rate from FABP1 to P450 4A11 (P450 4A11 [2])	Compound	first phase rate (k1), ketoconazole capture of unliganded enzyme (P450 4A11 [1]; [3])	second phase rate = koff from P450 4A11 (P450 4A11 [1]; [3])	kon to P450 4A11 (k3) (P450 4A11 [1]; calculated from koff and Kd)	rate of transfer to P450 4A11 relative to transfer to phospholipid membranes (P450 4A11 [2])
–	–	–	O=C(O)CCCCCCCCCCCCCCCO [16-OH Palmitate (C16), 16-hydroxypalmitate]	1.3 ± 0.4 s⁻¹	0.070 ± 0.006 (k-3) s^−1	2.6 × 10^5 (k3) M^−1 s^−1	–
0.2 ± 0.01 s⁻¹	4.8 µM	4.2 ± 0.9 s⁻¹	CCCCCCCCCCCCCCCC(=O)O [Palmitate (C16), palmitate]	2.9 ± 0.1 s⁻¹	–	–	–
–	–	~5 s⁻¹	FABP1: delipidated recombinant liver fatty acid binding protein with C-terminal hexahistidine tag	–	–	–	~1000 fold
